# Reference: patent US20230270720A1, “MAVOGLURANT, A MGLUR5 ANTAGONIST, FOR USE IN THE TREATMENT IN THE REDUCTION OF OPIOID USE” (Novartis AG, priority 2020, published 2023)
# Assays:
# adult CD1 mice = conditions: 20 mg/kg, i.p., cited from earlier work
# [1] = tested on: rat model of drug dependence; conditions: cited from earlier work
# Sprague-Dawley rats [2] = assay: Cue-induced reinstatement of remifentanil seeking in the rat; assay type: in vivo
# Sprague-Dawley rats [3] = assay: Remifentanil intravenous self-administration model in Sprague-Dawley rats; assay type: in vivo, rat; conditions: for rate of lever press (speed of lever pressing): vehicle 0.077±0.031, P>0.05
# morphine tolerant mice = assay: Opiate tolerance test (hot plate) in the mouse; assay type: in vivo; conditions: for increase of foot-licking latency as compared with animals receiving morphine from Day 1 to Day 6: morphine 32 mg/kg i.p. twice daily Day 1-6; for effect on foot-licking latency: morphine tolerant mice
compound,measurement,setting,value
"Cc1nc(C#Cc2cccnc2)cs1 [MTEP, 3-[(2-methyl-1,3-thiazol-4-yl)ethynyl]pyridine]",operant responding for morphine,adult CD1 mice; morphine 0.1 mg/kg/infusion,attenuated
same,cue-induced morphine-seeking after a period of forced abstinence,adult CD1 mice,attenuated
"Cc1cccc(C#Cc2ccccc2)n1 [Compound (III), 2-Methyl-6-(phenylethynyl)-pyridine, reference compound]",reduction of the self-administration (SA) of ketamine,[1]; dose dependently,75%
same,reduction of the self-administration (SA) of heroin,[1]; modestly,20%
same,number of active lever presses as compared with vehicle condition,"Sprague-Dawley rats [2]; rat, in vivo",significantly decreased
same,number of inactive lever presses as compared with vehicle,"Sprague-Dawley rats [2]; rat, in vivo",did not significantly affect
same,rate of lever press,"Sprague-Dawley rats [3]; rat, in vivo",0.039±0.011 responses per second
same,increase of foot-licking latency as compared with animals receiving morphine from Day 1 to Day 6,"morphine tolerant mice; 10 mg/kg p.o. 60 minutes before the test on Day 7, p<0.05",+32%
"COC(=O)N1CC[C@@H]2[C@H]1CCC[C@@]2(O)C#Cc1cccc(C)c1 [Compound (I), (−)-(3aR,4S,7aR)-4-Hydroxy-4-m-tolylethynyl-octahydro-indole-1-carboxylic acid methyl ester]",effect on cue-induced reinstatement (lever presses),Sprague-Dawley rats [2]; 3 mg/kg p.o. 30 minutes before the cue reinstatement session,No significant effect
same,number of active lever presses as compared with vehicle condition,"Sprague-Dawley rats [2]; 10 mg/kg p.o. 30 minutes before the cue reinstatement session, p<0.01",significantly decreased
same,number of inactive lever presses as compared with vehicle,"Sprague-Dawley rats [2]; 10 mg/kg p.o. 30 minutes before the cue reinstatement session, p<0.05",significantly decreased
same,average number of remifentanil infusions,Sprague-Dawley rats [3]; 3 mg/kg p.o. 30 min before one remifentanil 3.2 μg/kg/infusion session,did not significantly affect
same,rate of lever press (speed of lever pressing),Sprague-Dawley rats [3]; 3 mg/kg p.o. 30 min before session,0.048±0.019 responses/second/session
same,average number of remifentanil infusions,Sprague-Dawley rats [3]; 10 mg/kg p.o. 30 min before one remifentanil 3.2 μg/kg/infusion session,did not significantly affect
same,rate of lever press (speed of lever pressing),Sprague-Dawley rats [3]; 10 mg/kg p.o. 30 min before session,0.035±0.010 responses/second/session
same,average number of remifentanil infusions,Sprague-Dawley rats [3]; 30 mg/kg p.o. 30 min before one remifentanil 3.2 μg/kg/infusion session,did not significantly affect
same,rate of lever press (speed of lever pressing),Sprague-Dawley rats [3]; 30 mg/kg p.o. 30 min before session,0.026±0.007 responses/second/session
same,increase of foot-licking latency as compared with animals receiving morphine from Day 1 to Day 6,"morphine tolerant mice; 1 mg/kg p.o. 60 minutes before the test on Day 7, p<0.01",+44%
same,effect on foot-licking latency,morphine tolerant mice; 3 mg/kg p.o. 60 minutes before the test on Day 7,no significant effects
same,effect on foot-licking latency,morphine tolerant mice; 10 mg/kg p.o. 60 minutes before the test on Day 7,no significant effects
